From patent publication US12678446B2 (PFIZER INC., priority 2020, dated 2026)

Key:
[1] = tested on: RSV (RSV A2 ECACC, 0709161v); test: RSV plaque reduction assay; type: cell-based, respiratory syncytial virus; details: human respiratory syncytial virus, HepG2, read-out: RSV A2 Plaque EC50, RSV A2 in Hep-G2 cells; mean of at least two experiments unless noted (n = 1)
Summary of the method: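 Eight-point compound dilutions were premixed with RSV A2 (100 PFU/well) and applied to confluent Hep-G2 cells for 2 h, followed by a 2-day incubation at 37° C. under compound-containing 0.8% CMC overlay. EC50 comes from immunostained plaque counts relative to untreated virus wells, averaged over ≥2 runs.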

cell toxicity CC50 = type: cell-based; details: human; Hep-G2 cells; mean of at least two experiments; read-out: Cell Cytotoxicity CC50

SMILES	EC50 [1] [nM]	CC50 (cell toxicity CC50) [nM]
CCN(C(=O)OC(C)(C)C)C1COc2c(C(=O)N[C@H]3N=C(c4ccccc4)c4cccc(F)c4NC3=O)c(-c3ccccc3F)nn2C1 (stereo partly drawn) [Example 108, tert-butyl N-ethyl-N-[3-[[(3S)-9-fluoro-2-oxo-5-phenyl-1,3-dihydro-1,4-benzodiazepin-3-yl]carbamoyl]-2-(2-fluorophenyl)-6,7-dihydro-5H-pyrazolo[5,1-b][1,3]oxazin-6-yl]carbamate]	117	> 25000
C[C@@H]1CCn2nc(C3CCCCC3)c(C(=O)N[C@H]3N=C(c4ccccc4)c4cccc(F)c4NC3=O)c2O1 [Example 114, (5R)-2-Cyclohexyl-N-[(3S)-9-fluoro-2-oxo-5-phenyl-1,3-dihydro-1,4-benzodiazepin-3-yl]-5-methyl-6,7-dihydro-5H-pyrazolo[5,1-b][1,3]oxazine-3-carboxamide]	117	17100
Cc1nn(C)cc1-c1nn2c(c1C(=O)N[C@H]1N=C(c3ccccc3)c3cccc(F)c3NC1=O)O[C@H](C)CC2 [Example 115, (5R)-2-(1,3-Dimethylpyrazol-4-yl)-N-[(3S)-9-fluoro-2-oxo-5-phenyl-1,3-dihydro-1,4-benzodiazepin-3-yl]-5-methyl-6,7-dihydro-5H-pyrazolo[5,1-b][1,3]oxazine-3-carboxamide]	226	> 25000
C[C@@H]1CCn2nc(-c3cnn(C4COC4)c3)c(C(=O)N[C@H]3N=C(c4ccccc4)c4cccc(F)c4NC3=O)c2O1 [Example 116, (5R)-N-[(3S)-9-fluoro-2-oxo-5-phenyl-1,3-dihydro-1,4-benzodiazepin-3-yl]-5-methyl-2-[1-(oxetan-3-yl)pyrazol-4-yl]-6,7-dihydro-5H-pyrazolo[5,1-b][1,3]oxazine-3-carboxamide]	127	> 25000
C[C@@H]1CCn2nc(-c3cnn(CCO)c3)c(C(=O)N[C@H]3N=C(c4ccccc4)c4cccc(F)c4NC3=O)c2O1 [Example 117, (5R)-N-[(3S)-9-fluoro-2-oxo-5-phenyl-1,3-dihydro-1,4-benzodiazepin-3-yl]-2-[1-(2-hydroxyethyl)pyrazol-4-yl]-5-methyl-6,7-dihydro-5H-pyrazolo[5,1-b][1,3]oxazine-3-carboxamide]	434	> 25000
C[C@@H]1CCn2nc(-c3cnn(CC(F)(F)F)c3)c(C(=O)N[C@H]3N=C(c4ccccc4)c4cccc(F)c4NC3=O)c2O1 [Example 118, (5R)-N-[(3S)-9-fluoro-2-oxo-5-phenyl-1,3-dihydro-1,4-benzodiazepin-3-yl]-5-methyl-2-[1-(2,2,2-trifluoroethyl)pyrazol-4-yl]-6,7-dihydro-5H-pyrazolo[5,1-b][1,3]oxazine-3-carboxamide]	43	> 25000
COCCn1cc(-c2nn3c(c2C(=O)N[C@H]2N=C(c4ccccc4)c4cccc(F)c4NC2=O)O[C@H](C)CC3)cn1 [Example 119, (5R)-N-[(3S)-9-fluoro-2-oxo-5-phenyl-1,3-dihydro-1,4-benzodiazepin-3-yl]-2-[1-(2-methoxyethyl)pyrazol-4-yl]-5-methyl-6,7-dihydro-5H-pyrazolo[5,1-b][1,3]oxazine-3-carboxamide]	69	> 25000
Cc1c(-c2nn3c(c2C(=O)N[C@H]2N=C(c4ccccc4)c4cccc(F)c4NC2=O)O[C@H](C)CC3)cnn1C [Example 121, (5R)-2-(1,5-Dimethylpyrazol-4-yl)-N-[(3S)-9-fluoro-2-oxo-5-phenyl-1,3-dihydro-1,4-benzodiazepin-3-yl]-5-methyl-6,7-dihydro-5H-pyrazolo[5,1-b][1,3]oxazine-3-carboxamide]	374	> 25000
C[C@@H]1CCn2nc(-c3cnn(CC(C)(C)O)c3)c(C(=O)N[C@H]3N=C(c4ccccc4)c4cccc(F)c4NC3=O)c2O1 [Example 122, (5R)-N-[(3S)-9-fluoro-2-oxo-5-phenyl-1,3-dihydro-1,4-benzodiazepin-3-yl]-2-[1-(2-hydroxy-2-methylpropyl)pyrazol-4-yl]-5-methyl-6,7-dihydro-5H-pyrazolo[5,1-b][1,3]oxazine-3-carboxamide]	166	> 25000
O=C(N[C@H]1N=C(c2ccccc2)c2cccc(F)c2NC1=O)c1c(-c2ccccc2F)nn2c1OCC(Cn1cccn1)C2 (stereo partly drawn) [Example 124, N-[(3S)-9-fluoro-2-oxo-5-phenyl-1,3-dihydro-1,4-benzodiazepin-3-yl]-2-(2-fluorophenyl)-6-(pyrazol-1-ylmethyl)-6,7-dihydro-5H-pyrazolo[5,1-b][1,3]oxazine-3-carboxamide]	76	> 25000
C[C@@H]1CCn2nc(-c3cnn(C4CC4)c3)c(C(=O)N[C@H]3N=C(c4ccccc4)c4ccccc4NC3=O)c2O1 [Example 125, (5R)-2-(1-Cyclopropylpyrazol-4-yl)-5-methyl-N-[(3S)-2-oxo-5-phenyl-1,3-dihydro-1,4-benzodiazepin-3-yl]-6,7-dihydro-5H-pyrazolo[5,1-b][1,3]oxazine-3-carboxamide]	70	> 25000
C[C@@H]1CCn2nc(-c3cnn(C4CC4)c3)c(C(=O)N[C@H]3N=C(c4ccccc4)c4cccc(F)c4NC3=O)c2O1 [Example 126, (5R)-2-(1-Cyclopropylpyrazol-4-yl)-N-[(3S)-9-fluoro-2-oxo-5-phenyl-1,3-dihydro-1,4-benzodiazepin-3-yl]-5-methyl-6,7-dihydro-5H-pyrazolo[5,1-b][1,3]oxazine-3-carboxamide]	54	> 25000
CCc1ccc(-c2nn3c(c2C(=O)N[C@H]2N=C(c4ccccc4)c4cccc(F)c4NC2=O)O[C@@H](C)CC3)cn1 [Example 127, (5S)-2-(6-Ethylpyridin-3-yl)-N-[(3S)-9-fluoro-2-oxo-5-phenyl-1,3-dihydro-1,4-benzodiazepin-3-yl]-5-methyl-6,7-dihydro-5H-pyrazolo[5,1-b][1,3]oxazine-3-carboxamide]	41	> 25000
O=C(N[C@H]1N=C(c2ccccc2)c2cccc(F)c2NC1=O)c1c(-c2ccc(F)cc2F)nn2c1OCC(CO)C2 (stereo partly drawn) [Example 128, 2-(2,4-Difluorophenyl)-N-[(3S)-9-fluoro-2-oxo-5-phenyl-1,3-dihydro-1,4-benzodiazepin-3-yl]-6-(hydroxymethyl)-6,7-dihydro-5H-pyrazolo[5,1-b][1,3]oxazine-3-carboxamide]	41	> 25000
CCn1cc(-c2nn3c(c2C(=O)N[C@H]2N=C(c4ccccc4)c4cccc(F)c4NC2=O)OCC(CO)C3)cn1 (stereo partly drawn) [Example 130, 2-(1-Ethylpyrazol-4-yl)-N-[(3S)-9-fluoro-2-oxo-5-phenyl-1,3-dihydro-1,4-benzodiazepin-3-yl]-6-(hydroxymethyl)-6,7-dihydro-5H-pyrazolo[5,1-b][1,3]oxazine-3-carboxamide]	350	> 25000
O=C(N[C@H]1N=C(c2ccccc2)c2ccccc2NC1=O)c1c(-c2ccc(F)cc2F)nn2c1OCC(CO)C2 (stereo partly drawn) [Example 131, 2-(2,4-Difluorophenyl)-6-(hydroxymethyl)-N-[(3S)-2-oxo-5-phenyl-1,3-dihydro-1,4-benzodiazepin-3-yl]-6,7-dihydro-5H-pyrazolo[5,1-b][1,3]oxazine-3-carboxamide]	93	> 25000
CCc1ccc(-c2nn3c(c2C(=O)N[C@H]2N=C(c4ccccc4)c4ccccc4NC2=O)O[C@@H](C)CC3)cn1 [Example 132, (5S)-2-(6-Ethylpyridin-3-yl)-5-methyl-N-[(3S)-2-oxo-5-phenyl-1,3-dihydro-1,4-benzodiazepin-3-yl]-6,7-dihydro-5H-pyrazolo[5,1-b][1,3]oxazine-3-carboxamide]	72	> 25000
CCc1ccc(-c2nn3c(c2C(=O)N[C@H]2N=C(c4ccccc4)c4cccc(F)c4NC2=O)OCC(CO)C3)cn1 (stereo partly drawn) [Example 133, 2-(6-Ethylpyridin-3-yl)-N-[(3S)-9-fluoro-2-oxo-5-phenyl-1,3-dihydro-1,4-benzodiazepin-3-yl]-6-(hydroxymethyl)-6,7-dihydro-5H-pyrazolo[5,1-b][1,3]oxazine-3-carboxamide]	220	> 25000
CS(=O)(=O)c1ccc(-c2nn3c(c2C(=O)N[C@H]2N=C(c4ccccc4)c4cccc(F)c4NC2=O)OCCC3)c(F)c1 [Example 135, 2-(2-Fluoro-4-methylsulfonylphenyl)-N-[(3S)-9-fluoro-2-oxo-5-phenyl-1,3-dihydro-1,4-benzodiazepin-3-yl]-6,7-dihydro-5H-pyrazolo[5,1-b][1,3]oxazine-3-carboxamide]	15	> 25000
O=C(N[C@H]1N=C(c2ccccc2)c2ccccc2NC1=O)c1c(-c2cccnc2F)nn2c1OCCC2 [Example 136, 2-(2-Fluoropyridin-3-yl)-N-[(3S)-2-oxo-5-phenyl-1,3-dihydro-1,4-benzodiazepin-3-yl]-6,7-dihydro-5H-pyrazolo[5,1-b][1,3]oxazine-3-carboxamide]	182	> 25000
C[C@@H]1CCn2nc(-c3ccc(S(C)(=O)=O)cc3F)c(C(=O)N[C@H]3N=C(c4ccccc4)c4cccc(F)c4NC3=O)c2O1 [Example 137, (5R)-2-(2-Fluoro-4-methylsulfonylphenyl)-N-[(3S)-9-fluoro-2-oxo-5-penyl-1,3-dihydro-1,4-benzodiazepin-3-yl]-5-methyl-6,7-dihydro-5H-pyrazolo[5,1-b][1,3]oxazine-3-carboxamide]	15	> 25000
N#Cc1ccc(-c2nn3c(c2C(=O)N[C@H]2N=C(c4ccccc4)c4cccc(F)c4NC2=O)OCCC3)c(F)c1 [Example 138, 2-(4-Cyano-2-fluorophenyl)-N-[(3S)-9-fluoro-2-oxo-5-phenyl-1,3-dihydro-1,4-benzodiazepin-3-yl]-6,7-dihydro-5H-pyrazolo[5,1-b][1,3]oxazine-3-carboxamide]	54	> 25000
